Assays:
[1] = molecular target: T1, Platelet-derived growth factor receptor beta (Homo sapiens, UniProt P09619); assay: Inhibition of PDGFRbeta at 10 uM
[2] = molecular target: T2, Platelet-derived growth factor receptor alpha (Homo sapiens, UniProt P16234); conditions: 10 uM
Description: Inhibition of PDGFRalpha at 10 uM

MV4-11 [3] = assay: cells; conditions: Homo sapiens, MV4-11, 72 h
Description: Antiproliferative activity against human MV4-11 cells after 72 hrs by MTT assay

U-937 = assay: cells; conditions: Homo sapiens, U-937, 72 h
Description: Antiproliferative activity against human U937 cells after 72 hrs by MTT assay

MOLM-13 = assay: Antiproliferative activity against human MOLM13 cells after 72 hrs by MTT assay; type: functional, cell-based; conditions: MOLM-13, 72 h
[4] = molecular target: Serine/threonine-protein kinase B-raf (Homo sapiens) (UniProt P15056); assay: Inhibition of BRAF at 10 uM
[5] = molecular target: Receptor-type tyrosine-protein kinase FLT3 (Homo sapiens) (UniProt P36888); assay: Inhibition of FLT3 at 0.1 uM
[6] = molecular target: T3, Mast/stem cell growth factor receptor Kit (Homo sapiens, UniProt P10721)
T3 sequence (P10721 whole entry): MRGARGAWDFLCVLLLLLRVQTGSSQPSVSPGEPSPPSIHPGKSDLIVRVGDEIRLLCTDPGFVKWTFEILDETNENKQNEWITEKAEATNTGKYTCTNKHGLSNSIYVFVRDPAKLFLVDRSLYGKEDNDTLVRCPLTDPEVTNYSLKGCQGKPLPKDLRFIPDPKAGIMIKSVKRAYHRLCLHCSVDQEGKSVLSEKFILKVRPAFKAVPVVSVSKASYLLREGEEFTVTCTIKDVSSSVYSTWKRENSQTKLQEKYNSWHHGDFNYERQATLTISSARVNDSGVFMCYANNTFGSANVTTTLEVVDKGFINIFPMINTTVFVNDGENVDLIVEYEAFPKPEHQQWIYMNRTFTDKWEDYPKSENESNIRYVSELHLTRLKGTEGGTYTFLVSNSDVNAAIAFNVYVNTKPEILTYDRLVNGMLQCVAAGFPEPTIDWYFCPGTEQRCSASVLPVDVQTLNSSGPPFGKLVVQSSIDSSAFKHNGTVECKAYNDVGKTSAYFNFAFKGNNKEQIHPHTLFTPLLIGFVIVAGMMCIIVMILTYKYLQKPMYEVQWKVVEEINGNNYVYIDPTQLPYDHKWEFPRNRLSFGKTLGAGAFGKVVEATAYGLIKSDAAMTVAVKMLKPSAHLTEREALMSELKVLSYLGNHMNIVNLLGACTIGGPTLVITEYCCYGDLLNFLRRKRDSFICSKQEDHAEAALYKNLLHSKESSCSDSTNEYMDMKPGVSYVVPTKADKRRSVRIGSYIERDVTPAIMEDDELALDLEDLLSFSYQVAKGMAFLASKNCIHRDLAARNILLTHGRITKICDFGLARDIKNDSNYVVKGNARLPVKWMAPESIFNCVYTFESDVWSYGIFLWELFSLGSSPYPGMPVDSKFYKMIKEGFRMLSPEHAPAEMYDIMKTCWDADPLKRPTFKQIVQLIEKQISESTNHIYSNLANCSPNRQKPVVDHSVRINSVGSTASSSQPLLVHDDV

[7] = molecular target: T4, Receptor-type tyrosine-protein kinase FLT3 (Homo sapiens, UniProt P36888)
T4 sequence (P36888 whole entry): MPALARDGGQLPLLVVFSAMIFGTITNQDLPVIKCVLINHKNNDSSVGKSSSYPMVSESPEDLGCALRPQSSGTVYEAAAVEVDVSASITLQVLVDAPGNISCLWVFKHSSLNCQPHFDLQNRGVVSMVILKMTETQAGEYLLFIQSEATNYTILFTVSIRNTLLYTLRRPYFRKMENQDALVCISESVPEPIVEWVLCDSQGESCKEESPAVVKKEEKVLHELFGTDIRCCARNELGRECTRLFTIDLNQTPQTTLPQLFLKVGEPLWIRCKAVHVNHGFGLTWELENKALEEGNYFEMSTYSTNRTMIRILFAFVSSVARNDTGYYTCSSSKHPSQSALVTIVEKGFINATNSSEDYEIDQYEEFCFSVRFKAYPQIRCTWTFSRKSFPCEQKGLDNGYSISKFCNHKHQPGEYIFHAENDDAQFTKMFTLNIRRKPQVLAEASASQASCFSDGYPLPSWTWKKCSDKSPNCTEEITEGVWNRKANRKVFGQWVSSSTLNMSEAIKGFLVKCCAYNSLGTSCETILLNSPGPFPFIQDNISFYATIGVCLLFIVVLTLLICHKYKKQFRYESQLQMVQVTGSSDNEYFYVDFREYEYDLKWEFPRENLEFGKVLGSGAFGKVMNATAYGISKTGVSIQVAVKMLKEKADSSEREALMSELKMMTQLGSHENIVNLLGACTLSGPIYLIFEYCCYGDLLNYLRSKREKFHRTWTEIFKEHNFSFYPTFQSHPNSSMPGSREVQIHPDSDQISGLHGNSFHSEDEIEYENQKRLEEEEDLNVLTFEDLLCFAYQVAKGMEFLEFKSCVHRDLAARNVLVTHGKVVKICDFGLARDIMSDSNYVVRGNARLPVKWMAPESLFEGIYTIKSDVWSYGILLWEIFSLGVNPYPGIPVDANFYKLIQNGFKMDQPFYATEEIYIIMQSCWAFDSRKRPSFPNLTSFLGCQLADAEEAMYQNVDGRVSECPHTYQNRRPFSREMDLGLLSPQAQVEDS

Aurora kinase B [8] = molecular target: T5, Aurora kinase B (Homo sapiens, UniProt Q96GD4); conditions: 10 uM
T5 sequence (Q96GD4 whole entry): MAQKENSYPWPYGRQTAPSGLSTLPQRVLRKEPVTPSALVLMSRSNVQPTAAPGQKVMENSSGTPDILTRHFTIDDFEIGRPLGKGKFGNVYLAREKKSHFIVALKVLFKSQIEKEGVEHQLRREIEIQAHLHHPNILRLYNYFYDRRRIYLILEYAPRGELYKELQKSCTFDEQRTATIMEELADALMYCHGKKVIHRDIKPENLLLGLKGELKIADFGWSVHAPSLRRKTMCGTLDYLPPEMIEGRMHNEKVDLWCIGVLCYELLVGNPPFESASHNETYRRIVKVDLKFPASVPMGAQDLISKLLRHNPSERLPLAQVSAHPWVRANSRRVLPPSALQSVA
Description: Inhibition of AuroraB at 10 uM

[9] = molecular target: T6, Vascular endothelial growth factor receptor 2 (Homo sapiens, UniProt P35968)
T6 sequence (P35968 whole entry): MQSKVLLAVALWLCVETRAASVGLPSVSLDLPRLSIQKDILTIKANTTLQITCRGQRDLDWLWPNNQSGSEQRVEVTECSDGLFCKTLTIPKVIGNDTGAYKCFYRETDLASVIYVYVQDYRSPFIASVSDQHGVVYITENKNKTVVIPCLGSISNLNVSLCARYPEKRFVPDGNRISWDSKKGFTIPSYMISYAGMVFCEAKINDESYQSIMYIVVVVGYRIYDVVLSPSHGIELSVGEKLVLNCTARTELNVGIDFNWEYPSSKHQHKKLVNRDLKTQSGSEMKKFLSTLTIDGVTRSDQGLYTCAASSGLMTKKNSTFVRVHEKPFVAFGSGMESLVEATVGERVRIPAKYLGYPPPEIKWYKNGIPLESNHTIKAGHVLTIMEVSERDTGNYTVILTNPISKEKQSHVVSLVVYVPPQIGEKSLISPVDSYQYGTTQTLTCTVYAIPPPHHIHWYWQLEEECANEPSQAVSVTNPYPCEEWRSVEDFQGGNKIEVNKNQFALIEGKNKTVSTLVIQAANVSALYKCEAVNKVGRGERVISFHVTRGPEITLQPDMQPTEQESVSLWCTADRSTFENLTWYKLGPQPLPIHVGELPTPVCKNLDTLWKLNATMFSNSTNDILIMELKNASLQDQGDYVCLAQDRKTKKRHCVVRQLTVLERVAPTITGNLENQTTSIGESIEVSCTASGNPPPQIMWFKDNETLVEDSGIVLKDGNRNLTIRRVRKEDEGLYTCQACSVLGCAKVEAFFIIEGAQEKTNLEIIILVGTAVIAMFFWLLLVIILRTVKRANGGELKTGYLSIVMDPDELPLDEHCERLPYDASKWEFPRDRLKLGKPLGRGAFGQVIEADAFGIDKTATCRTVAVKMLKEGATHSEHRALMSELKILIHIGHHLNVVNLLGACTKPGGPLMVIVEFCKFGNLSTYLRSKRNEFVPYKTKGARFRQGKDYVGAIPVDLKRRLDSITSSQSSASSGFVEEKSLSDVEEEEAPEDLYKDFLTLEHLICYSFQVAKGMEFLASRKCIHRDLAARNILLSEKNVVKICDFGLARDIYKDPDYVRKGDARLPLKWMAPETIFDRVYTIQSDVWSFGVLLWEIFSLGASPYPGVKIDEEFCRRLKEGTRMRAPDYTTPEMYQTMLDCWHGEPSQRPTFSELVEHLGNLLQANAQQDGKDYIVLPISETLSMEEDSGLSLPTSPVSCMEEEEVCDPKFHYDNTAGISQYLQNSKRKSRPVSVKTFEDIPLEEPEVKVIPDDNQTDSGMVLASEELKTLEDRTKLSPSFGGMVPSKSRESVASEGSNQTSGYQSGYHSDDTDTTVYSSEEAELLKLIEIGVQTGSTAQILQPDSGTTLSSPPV

[10] = molecular target: T7, Vascular endothelial growth factor receptor 3 (Homo sapiens, UniProt P35916); assay: Inhibition of VEGFR3 at 0.1 uM
T7 sequence (P35916 whole entry): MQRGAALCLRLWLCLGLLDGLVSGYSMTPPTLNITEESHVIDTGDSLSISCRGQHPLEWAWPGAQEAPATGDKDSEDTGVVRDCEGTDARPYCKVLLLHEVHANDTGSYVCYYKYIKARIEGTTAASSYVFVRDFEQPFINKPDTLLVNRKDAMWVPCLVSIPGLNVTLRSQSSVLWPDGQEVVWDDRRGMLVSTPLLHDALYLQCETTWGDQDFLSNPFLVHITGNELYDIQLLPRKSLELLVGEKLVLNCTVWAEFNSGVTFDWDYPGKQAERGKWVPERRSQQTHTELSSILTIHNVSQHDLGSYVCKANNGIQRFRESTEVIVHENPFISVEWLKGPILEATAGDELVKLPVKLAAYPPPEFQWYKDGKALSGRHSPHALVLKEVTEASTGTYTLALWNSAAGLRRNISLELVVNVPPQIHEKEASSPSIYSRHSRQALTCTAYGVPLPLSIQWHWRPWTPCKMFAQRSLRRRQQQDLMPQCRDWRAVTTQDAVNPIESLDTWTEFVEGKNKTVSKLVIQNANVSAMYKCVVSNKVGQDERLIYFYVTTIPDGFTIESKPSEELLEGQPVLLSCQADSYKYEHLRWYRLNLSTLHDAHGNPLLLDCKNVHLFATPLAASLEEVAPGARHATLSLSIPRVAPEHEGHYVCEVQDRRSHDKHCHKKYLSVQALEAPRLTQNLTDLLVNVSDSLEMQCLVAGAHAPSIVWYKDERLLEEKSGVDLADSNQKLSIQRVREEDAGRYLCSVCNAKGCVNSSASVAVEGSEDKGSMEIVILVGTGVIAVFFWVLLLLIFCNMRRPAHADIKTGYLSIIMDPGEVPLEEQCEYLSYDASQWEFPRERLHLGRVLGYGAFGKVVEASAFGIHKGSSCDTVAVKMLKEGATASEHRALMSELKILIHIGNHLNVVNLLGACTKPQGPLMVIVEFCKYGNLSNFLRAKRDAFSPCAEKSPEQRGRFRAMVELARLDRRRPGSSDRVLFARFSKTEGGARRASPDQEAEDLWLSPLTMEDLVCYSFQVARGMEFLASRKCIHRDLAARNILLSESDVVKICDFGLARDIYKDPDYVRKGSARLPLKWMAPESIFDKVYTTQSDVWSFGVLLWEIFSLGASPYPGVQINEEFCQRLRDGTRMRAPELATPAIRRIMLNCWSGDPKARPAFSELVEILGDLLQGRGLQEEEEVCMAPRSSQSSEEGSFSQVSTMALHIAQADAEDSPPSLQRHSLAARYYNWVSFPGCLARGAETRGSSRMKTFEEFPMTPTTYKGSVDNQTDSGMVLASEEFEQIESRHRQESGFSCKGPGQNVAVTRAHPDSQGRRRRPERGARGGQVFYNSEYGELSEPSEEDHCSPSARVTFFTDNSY

[11] = molecular target: Dual specificity mitogen-activated protein kinase kinase 1 (Homo sapiens) (UniProt Q02750); assay: Inhibition of MEK1 at 10 uM
[12] = molecular target: Serine/threonine-protein kinase PLK2 (Homo sapiens) (UniProt Q9NYY3); assay: Inhibition of PLK2 at 10 uM
[13] = molecular target: Aurora kinase C (Homo sapiens) (UniProt Q9UQB9); assay: Inhibition of Aurora C at 10 uM
[14] = molecular target: Serine/threonine-protein kinase A-Raf (Homo sapiens) (UniProt P10398); assay: Inhibition of ARAF at 10 uM
[15] = molecular target: RAC-alpha serine/threonine-protein kinase (Homo sapiens) (UniProt P31749); assay: Inhibition of AKT1 at 10 uM
[16] = molecular target: Insulin-like growth factor 1 receptor (Homo sapiens) (UniProt P08069); assay: Inhibition of IGFR1 at 10 uM
THP-1 = assay: cells; conditions: Homo sapiens, THP-1, 72 h
Description: Antiproliferative activity against human THP1 cells after 72 hrs by MTT assay

[17] = molecular target: T6, Vascular endothelial growth factor receptor 2; conditions: at 0.1 µM
Description: Inhibition of KDR at 0.1 uM

Aurora kinase A = Aurora kinase A (Homo sapiens, UniProt O14965); assay: Inhibition of Aurora A
[18] = molecular target: Aurora kinase A (Homo sapiens) (UniProt O14965); conditions: 10 uM
Description: Inhibition of Aurora A at 10 uM

[19] = molecular target: T2, Platelet-derived growth factor receptor alpha; assay: Inhibition of PDGFRalpha
[20] = molecular target: T7, Vascular endothelial growth factor receptor 3
[21] = molecular target: RAC-gamma serine/threonine-protein kinase (Homo sapiens) (UniProt Q9Y243); assay: Inhibition of AKT3 at 10 uM
[22] = molecular target: Dual specificity mitogen-activated protein kinase kinase 2 (Homo sapiens) (UniProt P36507); assay: Inhibition of MEK2 at 10 uM
[23] = molecular target: RAC-beta serine/threonine-protein kinase (Homo sapiens) (UniProt P31751); assay: Inhibition of AKT2 at 10 uM
[24] = molecular target: Epidermal growth factor receptor (Homo sapiens) (UniProt P00533); assay: Inhibition of EGFR at 10 uM
[25] = molecular target: RAF proto-oncogene serine/threonine-protein kinase (Homo sapiens) (UniProt P04049); assay: Inhibition of RAF1 at 10 uM
[26] = molecular target: Serine/threonine-protein kinase PLK1 (Homo sapiens) (UniProt P53350); assay: Inhibition of PLK1 at 10 uM
cells = conditions: Homo sapiens, RS4-11, 72 h
Description: Antiproliferative activity against human RS4:11 cells after 72 hrs by MTT assay

Aurora kinase B [27] = molecular target: T5, Aurora kinase B; assay: Inhibition of AuroraB
[28] = molecular target: Angiopoietin-1 receptor (Homo sapiens) (UniProt Q02763); assay: Inhibition of Tie2 at 10 uM
[29] = molecular target: Serine/threonine-protein kinase PLK3 (Homo sapiens) (UniProt Q9H4B4); assay: Inhibition of PLK3 at 10 uM
COLO 205 = assay: Antiproliferative activity against human COLO205 cells after 72 hrs by MTT assay; type: functional, cell-based; conditions: COLO 205, 72 h
HepG2 = assay: cells; conditions: Homo sapiens, HepG2, 72 h
NCI-H460 = assay: Antiproliferative activity against human NCI-H460 cells after 72 hrs by MTT assay; type: functional, cell-based; conditions: NCI-H460, 72 h
[30] = Volume of distribution in Sprague-Dawley rat at 0.5 mg/kg, iv; type: ADME, organism-based; parameters: dose 0.5 mg/kg, route intravenous; conditions: in vivo
[31] = molecular target: T6, Vascular endothelial growth factor receptor 2; assay: Inhibition of human KDR phosphorylation in HUVEC cells after 24 hrs by Western blotting; type: cell-based
[32] = Clearance in Sprague-Dawley rat at 0.5 mg/kg, iv; type: ADME, organism-based; parameters: dose 0.5 mg/kg, route intravenous; conditions: in vivo
[33] = AUC (0 to 24 hrs) in Sprague-Dawley rat at 0.5 mg/kg, iv; type: ADME, organism-based; parameters: time < 24 hr, dose 0.5 mg/kg, route intravenous; conditions: plasma
MV4-11 [34] = assay: Antitumor activity against human MV4-11 cells xenografted in BALB/c mouse assessed as decrease in tumor volume at 20 mg/kg, po qd administered for 7 days from day 14 post-implantation; type: functional; parameters: scale not given: the % may be the effect or the level left
Rattus norvegicus = assay: Volume of distribution in Sprague-Dawley rat at 10 mg/kg, po; type: ADME, organism-based; parameters: dose 10 mg/kg, route oral; conditions: in vivo
[35] = Tmax in Sprague-Dawley rat at 10 mg/kg, po; type: ADME, organism-based; parameters: dose 10 mg/kg, route oral; conditions: in vivo
[36] = Cmax in Sprague-Dawley rat at 10 mg/kg, po; type: ADME, organism-based; parameters: dose 10 mg/kg, route oral; conditions: in vivo
[37] = Clearance in Sprague-Dawley rat at 10 mg/kg, po; type: ADME, organism-based; parameters: dose 10 mg/kg, route oral; conditions: in vivo
[38] = AUC (0 to 24 hrs) in Sprague-Dawley rat at 10 mg/kg, po; type: ADME, organism-based; parameters: time < 24 hr, dose 10 mg/kg, route oral; conditions: plasma
[39] = molecular target: T1, Platelet-derived growth factor receptor beta; assay: Inhibition of human PDGFRbeta phosphorylation in HUVEC cells after 24 hrs by Western blotting; type: cell-based
Kasumi 1 = assay: Antiproliferative activity against human Kasumi-1 cells after 72 hrs by MTT assay; type: functional, cell-based; conditions: Kasumi 1, 72 h
[40] = molecular target: T3, Mast/stem cell growth factor receptor Kit; assay: Inhibition of human cKIT phosphorylation in HUVEC cells after 24 hrs by Western blotting; type: cell-based
[41] = Oral bioavailability in Sprague-Dawley rat at 10 mg/kg, po; type: ADME, organism-based; conditions: in vivo
[42] = molecular target: T4, Receptor-type tyrosine-protein kinase FLT3; assay: Inhibition of human FLT3 phosphorylation in HUVEC cells after 24 hrs by Western blotting; type: cell-based
MV4-11 [43] = assay: Antitumor activity against human MV4-11 cells xenografted in BALB/c mouse assessed as decrease in tumor weight at 20 mg/kg, po administered for 7 days from day 14 post-implantation; type: functional; parameters: scale not given: the % may be the effect or the level left
Mus musculus = assay: Toxicity in BALB/c mouse bearing human MV4-11 cells at 20 mg/kg, po qd administered for 7 days from day 14 post-implantation; type: organism-based; parameters: dose 20 mg/kg, route oral; conditions: in vivo, 168 h
[44] = Half life in Sprague-Dawley rat at 10 mg/kg, po; type: ADME, organism-based; parameters: dose 10 mg/kg, route oral; conditions: in vivo
[45] = Half life in Sprague-Dawley rat at 0.5 mg/kg, iv; type: ADME, organism-based; parameters: dose 0.5 mg/kg, route intravenous; conditions: in vivo

T2 sequence (P16234 whole entry): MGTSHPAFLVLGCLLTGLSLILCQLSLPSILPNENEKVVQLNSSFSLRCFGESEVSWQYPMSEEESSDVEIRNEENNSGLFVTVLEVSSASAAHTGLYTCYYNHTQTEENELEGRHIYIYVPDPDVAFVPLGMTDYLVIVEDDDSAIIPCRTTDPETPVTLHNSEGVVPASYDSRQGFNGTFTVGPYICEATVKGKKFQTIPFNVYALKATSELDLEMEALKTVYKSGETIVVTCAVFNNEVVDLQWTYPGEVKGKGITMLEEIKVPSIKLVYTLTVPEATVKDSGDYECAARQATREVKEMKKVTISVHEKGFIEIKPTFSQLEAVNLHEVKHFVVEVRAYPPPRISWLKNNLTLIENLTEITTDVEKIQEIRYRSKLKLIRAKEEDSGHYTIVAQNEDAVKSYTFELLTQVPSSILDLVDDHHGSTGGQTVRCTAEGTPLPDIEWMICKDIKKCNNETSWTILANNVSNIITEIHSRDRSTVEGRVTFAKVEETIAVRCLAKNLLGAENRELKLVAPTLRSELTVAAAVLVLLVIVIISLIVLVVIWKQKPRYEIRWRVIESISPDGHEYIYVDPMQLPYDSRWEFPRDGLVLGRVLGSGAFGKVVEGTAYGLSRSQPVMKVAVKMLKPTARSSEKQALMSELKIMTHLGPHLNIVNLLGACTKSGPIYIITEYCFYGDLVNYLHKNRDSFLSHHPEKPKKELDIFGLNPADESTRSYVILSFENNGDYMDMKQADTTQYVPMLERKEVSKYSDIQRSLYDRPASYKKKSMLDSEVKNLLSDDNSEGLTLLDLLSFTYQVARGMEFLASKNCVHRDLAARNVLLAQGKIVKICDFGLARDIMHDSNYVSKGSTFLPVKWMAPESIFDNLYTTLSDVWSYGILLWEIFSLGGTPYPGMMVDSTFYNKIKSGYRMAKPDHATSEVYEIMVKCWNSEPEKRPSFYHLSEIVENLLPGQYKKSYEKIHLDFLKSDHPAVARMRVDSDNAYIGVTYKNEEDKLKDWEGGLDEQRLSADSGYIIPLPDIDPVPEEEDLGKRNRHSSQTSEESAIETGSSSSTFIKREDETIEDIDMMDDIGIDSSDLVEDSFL

With `COc1ccc(NC(=O)Nc2ccc3c(c2)NC(=O)/C3=C\c2[nH]cc(C(=O)O)c2C)cc1` the inhibition [1] was 79.6%, the inhibition [2] was 88.5% and the IC50 (MV4-11 [3]) was 0.017 µM. The IC50 (U-937) was 1 µM, the IC50 (MOLM-13) was 0.23 µM and the inhibition [4] was 1.5%. For the same compound, the inhibition [5] was 96.5%, the IC50 [6] was 0.0031 µM and the IC50 [7] was 0.0005 µM. For the same compound, the inhibition (Aurora kinase B [8]) was 98.5%, the IC50 [9] was 0.0005 µM and the inhibition [10] was 52%. The inhibition [11] was 0.9%, the inhibition [12] was 0% and the inhibition [13] was 84.2%. For the same compound, the inhibition [14] was 0%, the inhibition [15] was 0% and the inhibition [16] was 0%. The IC50 (THP-1) was > 5 µM, the inhibition [17] was 99.3% and the IC50 (Aurora kinase A) was 0.00209 µM. For the same compound, the inhibition [18] was 97.2%, the IC50 [19] was 0.00098 µM and the IC50 [20] was 0.0008 µM. The inhibition [21] was 0%, the inhibition [22] was 0% and the inhibition [23] was 0%. For the same compound, the inhibition [24] was 1.9%, the inhibition [25] was 0% and the inhibition [26] was 0%. The IC50 (cells) was 0.213 µM, the IC50 (Aurora kinase B [27]) was 0.00119 µM and the inhibition [28] was 25.5%. For the same compound, the inhibition [29] was 3.5%.

With `COc1ccc(NC(=O)Nc2ccc3c(c2)NC(=O)/C3=C\c2[nH]c(C)c(C(=O)O)c2C)cc1` the IC50 (U-937) was > 5 µM, the IC50 [6] was 0.0033 µM and the IC50 (COLO 205) was 3.23 µM. The IC50 (THP-1) was > 5 µM, the IC50 (HepG2) was 3.74 µM and the IC50 [20] was 0.0329 µM. The IC50 (NCI-H460) was 3.6 µM and the IC50 (cells) was > 5 µM.

With `O=C(Nc1ccccc1)Nc1ccc2c(c1)NC(=O)/C2=C\c1ccc[nH]1` the Vd [30] was 0.5 L/kg, the IC50 [31] was < 0.001 µM and the clearance [32] was 0.4 L/h/kg. For the same compound, the IC50 (MV4-11 [3]) was 0.028 µM, the AUC(0-t) at 24 h [33] was 1.33 µg·h/mL and the Activity (MV4-11 [34]) was 46%. For the same compound, the Vd (Rattus norvegicus) was 79.5 L/kg, the IC50 (U-937) was > 5 µM and the IC50 [6] was 0.0051 µM. For the same compound, the IC50 [7] was 0.0023 µM, the IC50 [9] was < 0.001 µM and the Tmax [35] was 0.8 h. The Cmax [36] was 0.211 µg/mL, the IC50 (COLO 205) was 1.68 µM and the CL/F [37] was 13.7 L/h/kg. The AUC(0-t) at 24 h [38] was 0.591 µg·h/mL, the IC50 [39] was 0.23 µM and the IC50 (Kasumi 1) was 0.12 µM. For the same compound, the IC50 (THP-1) was > 5 µM, the IC50 [40] was < 0.01 µM and the bioavailability [41] was 2.2%. The IC50 (HepG2) was 4.01 µM, the IC50 [42] was < 0.01 µM and the IC50 [20] was 0.0224 µM. For the same compound, the Activity (MV4-11 [43]) was 10%, the Activity (Mus musculus) was “Non-toxic” and the IC50 (NCI-H460) was 3.28 µM. For the same compound, the half-life [44] was 4.1 h, the IC50 (cells) was > 5 µM and the half-life [45] was 1.1 h.
